Tests used:
Assay type in all cases: ADME, organism-based
[1] = Clearance in CD-1 mouse at 3 mg/kg, iv and 10 mg/kg, po; conditions: in vivo
[2] = Volume of distribution at steady state in CD-1 mouse at 3 mg/kg, iv and 10 mg/kg, po; conditions: in vivo, read-out: Vdss
[3] = Oral bioavailability in CD-1 mouse at 10 mg/kg; conditions: in vivo
[4] = AUC in CD-1 mouse at 10 mg/kg, po; design: dose 10 mg/kg, route oral; conditions: plasma
[5] = Half life in CD-1 mouse at 3 mg/kg, iv; design: dose 3 mg/kg, route intravenous; conditions: in vivo

| Structure (SMILES) | clearance [1] [mL/min/kg] | Vd [2] [L/kg] | bioavailability [3] [%] | AUC [4] [ng·h/mL] | half-life [5] [min] |
| --- | --- | --- | --- | --- | --- |
| Cc1ccc(-c2ncc(C)n2C)cc1NC(=O)c1ccc(OCc2ccccn2)cc1 | 210 | 12 | 22 | 100 | 54 |
| Cc1ccc(-c2ncc[nH]2)cc1NC(=O)c1ccc(OCc2ccccn2)cc1 | 8.3 | 0.5 | 83 | 12500 | 60 |

— ChEMBL document CHEMBL2057166, “Discovery of novel hedgehog antagonists from cell-based screening: Isosteric modification of p38 bisamides as potent inhibitors of SMO” (Bioorg Med Chem Lett, 2012)
